These compounds were tested on ovulation (assay: Ovulation inducing effect in proestrus rats (subcutaneous)). Conditions: subcutaneous injection at 4:00 p.m. on proestrus day; pentobarbital 30 mg/kg i.p. at 1:00 p.m.; five rats per dosage.
Format: in vivo, F. Wistar-Imamichi rats
Description: Examination of ovulation inducing effect
F. Wistar-Imamichi rats (body weight: around 250 g) were bred at room temperature (23° ±1° C) under an artificial light (on at 5:00 a.m. and off at 7:00 p.m.). Among these rats, the rats which had more than three times of four days sexual cycle were subjected to the test.
At 1:00 p.m. on proestrus days, pentobarbital sodium salt was intraperitoneally administered into each of rats (in the amount of 30 mg/kg). Then, at 4:00 p.m. of the same day, a test sample dissolved in 0.1 ml of isotonic sodium chloride solution was subcutaneously injected. Between noon and 1:00 p.m. of the next day, the rats were sacrified and the oviduct was immediately taken out. The oviduct was then placed between a couple of slide glasses and examined for ova through a microscope. The test was conducted by employing five rats for a certain dosage of test samples.

Compound	ED50 (ovulation inducing effect) [μg/body]
CCCC[C@@H](NC(=O)[C@H](Cc1ccc(O)cc1)NC(=O)[C@H](CO)NC(=O)[C@H](Cc1c[nH]c2ccccc12)NC(=O)[C@H](Cc1c[nH]cn1)NC(=O)CN(C)C(C)=O)C(=O)N[C@@H](CC(C)C)C(=O)N[C@@H](CCCNC(=N)N)C(=O)N1CCC[C@H]1C(=O)NCCF [Compound B, N-Acetyl-N-methylglycyl-L-histidyl-L-tryptophyl-L-seryl-L-tyrosyl-D-norleucyl-L-leucyl-L-arginyl-L-proline-2-fluoroethylamide]	0.0125
CC(C)C[C@H](NC(=O)CNC(=O)[C@H](Cc1ccc(O)cc1)NC(=O)[C@H](CO)NC(=O)[C@H](Cc1c[nH]c2ccccc12)NC(=O)[C@H](Cc1c[nH]cn1)NC(=O)[C@@H]1CCC(=O)N1)C(=O)N[C@@H](CCCNC(=N)N)C(=O)N1CCC[C@H]1C(=O)NCC(N)=O [Natural-type LH-RH (synthesized), L-pyroglutamyl-L-histidyl-L-tryptophyl-L-seryl-L-tyrosylglycyl-L-leucyl-L- arginyl-L-prolylglycine amide, reference compound]	0.134
N-Acetyl-N-methylglycyl-L-histidyl-L-tryptophyl-L-seryl-L-tyrosyl-D-alanyl-L-leucyl-L-arginyl-L-prolineethylamide [Compound A]	0.018

Reference: patent publication US4010149A, “Analogs of LH-RH and process for preparing the same” (Sankyo Company Limited, priority 1974, dated 1977)
